From patent US10253052B2, “HBED-bisphosphonates, radiometal conjugates and their use as theranostic agents” (Five Eleven Pharma Inc., priority 2015, dated 2019)
Where “and” joins values, the source holds several entries; their conditions need not be identical. Equal values may be shown once. Entries after “also recorded” stand apart in the source; their conditions may differ.

How the values were obtained:
[1] = In vitro binding to hydroxyapatite; details: 20 mg hydroxyapatite in saline, 10 min at room temperature
Method in brief: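 Hydroxyapatite was pre-incubated 24 h in isotonic saline, then ^68Ga-labelled compound (1 μCi) was added and incubated 10 min at room temperature. After centrifugation and two saline washes, gamma counting of supernatants and solid gave percent ^68Ga bound to hydroxyapatite.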

[2] = In vivo biodistribution in mice; set-up: species or system normal CD-1 male mice; details: for bone to blood ratio / bone to muscle ratio / Biodistribution: Blood / Biodistribution: Bone / Biodistribution: Brain / Biodistribution: Heart / Biodistribution: Kidney / Biodistribution: Liver / Biodistribution: Lung / Biodistribution: Muscle / Biodistribution: Pancreas / Biodistribution: Skin / Biodistribution: Spleen: iv
Method in brief: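 Normal male CD-1 mice (25-30 g) received 20-30 μCi of ^68Ga-labelled tracer or [^18F]NaF intravenously and were sacrificed at 2, 30, 60 and 120 min. Harvested organs, with tibia and femur as bone, were weighed and gamma-counted; uptake is expressed as % ID/g wet tissue.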

Structure (SMILES): O=C([O-])CN(CCN(CC(=O)[O-])Cc1cc(CCC(=O)NC(P(=O)(O)O)P(=O)(O)O)ccc1[O-])Cc1cc(CCC(=O)NC(P(=O)(O)O)P(=O)(O)O)ccc1[O-].[68Ga+3] [[^68Ga]2]
- Hydroxyapatite Binding (%) [1]: 90.8 ± 1.5%
- bone to blood ratio ([2]; 2 min): 1.1
- bone to muscle ratio ([2]; 2 min): 4.9
- Biodistribution: Blood ([2]; 2 min post injection): 9.97 ± 1.40 % dose/g
- Biodistribution: Bone ([2]; 2 min post injection): 11.0 ± 1.95 % dose/g
- Biodistribution: Brain ([2]; 2 min post injection): 0.30 ± 0.02 % dose/g
- Biodistribution: Heart ([2]; 2 min post injection): 4.13 ± 0.30 % dose/g
- Biodistribution: Kidney ([2]; 2 min post injection): 19.4 ± 1.38 % dose/g
- Biodistribution: Liver ([2]; 2 min post injection): 2.67 ± 0.12 % dose/g
- Biodistribution: Lung ([2]; 2 min post injection): 5.47 ± 0.57 % dose/g
- Biodistribution: Muscle ([2]; 2 min post injection): 2.26 ± 0.34 % dose/g
- Biodistribution: Pancreas ([2]; 2 min post injection): 2.05 ± 0.23 % dose/g
- Biodistribution: Skin ([2]; 2 min post injection): 3.19 ± 0.45 % dose/g
- Biodistribution: Spleen ([2]; 2 min post injection): 2.08 ± 0.22 % dose/g
- bone to blood ratio ([2]; 30 min): 26
- bone to muscle ratio ([2]; 30 min): 58
- Biodistribution: Blood ([2]; 30 min (0.5 hr) post injection): 0.73 ± 0.28 % dose/g
- Biodistribution: Bone ([2]; 30 min (0.5 hr) post injection): 18.8 ± 2.82 % dose/g
- Biodistribution: Brain ([2]; 30 min (0.5 hr) post injection): 0.03 ± 0.00 % dose/g
- Biodistribution: Heart ([2]; 30 min (0.5 hr) post injection): 0.99 ± 0.13 % dose/g
- Biodistribution: Kidney ([2]; 30 min (0.5 hr) post injection): 2.98 ± 1.13 % dose/g
- Biodistribution: Liver ([2]; 30 min (0.5 hr) post injection): 0.44 ± 0.09 % dose/g
- Biodistribution: Lung ([2]; 30 min (0.5 hr) post injection): 0.96 ± 0.23 % dose/g
- Biodistribution: Muscle ([2]; 30 min (0.5 hr) post injection): 0.32 ± 0.05 % dose/g
- Biodistribution: Pancreas ([2]; 30 min (0.5 hr) post injection): 0.36 ± 0.17 % dose/g
- Biodistribution: Skin ([2]; 30 min (0.5 hr) post injection): 0.71 ± 0.13 % dose/g
- Biodistribution: Spleen ([2]; 30 min (0.5 hr) post injection): 0.48 ± 0.09 % dose/g
- bone to blood ratio ([2]; 60 min): 42
- bone to muscle ratio ([2]; 60 min): 82.7 and 83
- Biodistribution: Blood ([2]; 60 min (1 hr) post injection): 0.47 ± 0.08 % dose/g
- Biodistribution: Bone ([2]; 60 min (1 hr) post injection): 19.7±4.2 % dose/g and 19.7 ± 4.17 % dose/g
- Biodistribution: Brain ([2]; 60 min (1 hr) post injection): 0.02 ± 0.00 % dose/g
- Biodistribution: Heart ([2]; 60 min (1 hr) post injection): 0.57 ± 0.13 % dose/g
- Biodistribution: Kidney ([2]; 60 min (1 hr) post injection): 2.61 ± 0.95 % dose/g
- Biodistribution: Liver ([2]; 60 min (1 hr) post injection): 0.43 ± 0.03 % dose/g
- Biodistribution: Lung ([2]; 60 min (1 hr) post injection): 0.58 ± 0.09 % dose/g
- Biodistribution: Muscle ([2]; 60 min (1 hr) post injection): 0.24 ± 0.04 % dose/g
- Biodistribution: Pancreas ([2]; 60 min (1 hr) post injection): 0.27 ± 0.01 % dose/g
- Biodistribution: Skin ([2]; 60 min (1 hr) post injection): 0.38 ± 0.05 % dose/g
- Biodistribution: Spleen ([2]; 60 min (1 hr) post injection): 0.43 ± 0.05 % dose/g
- bone to blood ratio ([2]; 120 min): 77
- bone to muscle ratio ([2]; 120 min): 103
- Biodistribution: Blood ([2]; 120 min post injection): 0.31 ± 0.09 % dose/g
- Biodistribution: Bone ([2]; 120 min post injection): 23.9 ± 5.54 % dose/g
- Biodistribution: Brain ([2]; 120 min post injection): 0.02 ± 0.00 % dose/g
- Biodistribution: Heart ([2]; 120 min post injection): 0.42 ± 0.08 % dose/g
- Biodistribution: Kidney ([2]; 120 min post injection): 2.86 ± 1.16 % dose/g
- Biodistribution: Liver ([2]; 120 min post injection): 0.40 ± 0.03 % dose/g
- Biodistribution: Lung ([2]; 120 min post injection): 0.40 ± 0.05 % dose/g
- Biodistribution: Muscle ([2]; 120 min post injection): 0.23 ± 0.05 % dose/g
- Biodistribution: Pancreas ([2]; 120 min post injection): 0.31 ± 0.11 % dose/g
- Biodistribution: Skin ([2]; 120 min post injection): 0.33 ± 0.06 % dose/g
- Biodistribution: Spleen ([2]; 120 min post injection): 0.43 ± 0.24 % dose/g
- Biodistribution result in words (organ uptake, retention, excretion) ([2]; normal mice after iv injection): excellent bone uptake and fast kidney excretion; also recorded: excellent bone uptake and retention

Structure (SMILES): O=C([O-])CN(CCN(CC(=O)[O-])Cc1cc(CCC(=O)NC(P(=O)(O)O)P(=O)(O)O)ccc1[O-])Cc1cc(CCC(=O)NCC(=O)O)ccc1[O-].[68Ga+3] [[^68Ga]1c]
- Hydroxyapatite Binding (%) [1]: 89.1 ± 1.0%
- bone to blood ratio ([2]; 2 min): 0.7
- bone to muscle ratio ([2]; 2 min): 5
- Biodistribution: Blood ([2]; 2 min post injection): 11.7 ± 0.55 % dose/g
- Biodistribution: Bone ([2]; 2 min post injection): 8.40 ± 1.32 % dose/g
- Biodistribution: Brain ([2]; 2 min post injection): 0.27 ± 0.06 % dose/g
- Biodistribution: Heart ([2]; 2 min post injection): 4.57 ± 0.45 % dose/g
- Biodistribution: Kidney ([2]; 2 min post injection): 27.7 ± 5.46 % dose/g
- Biodistribution: Liver ([2]; 2 min post injection): 4.78 ± 0.18 % dose/g
- Biodistribution: Lung ([2]; 2 min post injection): 5.66 ± 0.24 % dose/g
- Biodistribution: Muscle ([2]; 2 min post injection): 1.68 ± 0.11 % dose/g
- Biodistribution: Pancreas ([2]; 2 min post injection): 1.99 ± 0.23 % dose/g
- Biodistribution: Skin ([2]; 2 min post injection): 2.05 ± 0.16 % dose/g
- Biodistribution: Spleen ([2]; 2 min post injection): 3.41 ± 0.08 % dose/g
- bone to blood ratio ([2]; 30 min): 8
- bone to muscle ratio ([2]; 30 min): 49
- Biodistribution: Blood ([2]; 30 min (0.5 hr) post injection): 1.34 ± 0.32 % dose/g
- Biodistribution: Bone ([2]; 30 min (0.5 hr) post injection): 11.3 ± 0.26 % dose/g
- Biodistribution: Brain ([2]; 30 min (0.5 hr) post injection): 0.05 ± 0.02 % dose/g
- Biodistribution: Heart ([2]; 30 min (0.5 hr) post injection): 0.49 ± 0.07 % dose/g
- Biodistribution: Kidney ([2]; 30 min (0.5 hr) post injection): 2.58 ± 0.05 % dose/g
- Biodistribution: Liver ([2]; 30 min (0.5 hr) post injection): 2.21 ± 0.27 % dose/g
- Biodistribution: Lung ([2]; 30 min (0.5 hr) post injection): 0.84 ± 0.11 % dose/g
- Biodistribution: Muscle ([2]; 30 min (0.5 hr) post injection): 0.23 ± 0.05 % dose/g
- Biodistribution: Pancreas ([2]; 30 min (0.5 hr) post injection): 0.39 ± 0.05 % dose/g
- Biodistribution: Skin ([2]; 30 min (0.5 hr) post injection): 0.53 ± 0.18 % dose/g
- Biodistribution: Spleen ([2]; 30 min (0.5 hr) post injection): 0.97 ± 0.01 % dose/g
- bone to blood ratio ([2]; 60 min): 23
- bone to muscle ratio ([2]; 60 min): 102
- Biodistribution: Blood ([2]; 60 min (1 hr) post injection): 0.64 ± 0.17 % dose/g
- Biodistribution: Bone ([2]; 60 min (1 hr) post injection): 14.7 ± 0.66 % dose/g
- Biodistribution: Brain ([2]; 60 min (1 hr) post injection): 0.03 ± 0.01 % dose/g
- Biodistribution: Heart ([2]; 60 min (1 hr) post injection): 0.24 ± 0.08 % dose/g
- Biodistribution: Kidney ([2]; 60 min (1 hr) post injection): 1.88 ± 0.10 % dose/g
- Biodistribution: Liver ([2]; 60 min (1 hr) post injection): 1.85 ± 0.11 % dose/g
- Biodistribution: Lung ([2]; 60 min (1 hr) post injection): 0.42 ± 0.08 % dose/g
- Biodistribution: Muscle ([2]; 60 min (1 hr) post injection): 0.14 ± 0.01 % dose/g
- Biodistribution: Pancreas ([2]; 60 min (1 hr) post injection): 0.23 ± 0.02 % dose/g
- Biodistribution: Skin ([2]; 60 min (1 hr) post injection): 0.33 ± 0.03 % dose/g
- Biodistribution: Spleen ([2]; 60 min (1 hr) post injection): 0.74 ± 0.10 % dose/g
- bone to blood ratio ([2]; 120 min): 39
- bone to muscle ratio ([2]; 120 min): 103
- Biodistribution: Blood ([2]; 120 min post injection): 0.41 ± 0.07 % dose/g
- Biodistribution: Bone ([2]; 120 min post injection): 16.1 ± 2.71 % dose/g
- Biodistribution: Brain ([2]; 120 min post injection): 0.02 ± 0.01 % dose/g
- Biodistribution: Heart ([2]; 120 min post injection): 0.19 ± 0.03 % dose/g
- Biodistribution: Kidney ([2]; 120 min post injection): 2.05 ± 0.27 % dose/g
- Biodistribution: Liver ([2]; 120 min post injection): 1.99 ± 0.09 % dose/g
- Biodistribution: Lung ([2]; 120 min post injection): 0.31 ± 0.06 % dose/g
- Biodistribution: Muscle ([2]; 120 min post injection): 0.16 ± 0.01 % dose/g
- Biodistribution: Pancreas ([2]; 120 min post injection): 0.20 ± 0.03 % dose/g
- Biodistribution: Skin ([2]; 120 min post injection): 0.31 ± 0.04 % dose/g
- Biodistribution: Spleen ([2]; 120 min post injection): 0.71 ± 0.29 % dose/g
